Data taken from article PMC8145938, “Triphenilphosphonium Analogs of Chloramphenicol as Dual-Acting Antimicrobial and Antiproliferating Agents” (Antibiotics, 2021).
In brackets after ≈: the same amount, converted by molar mass. Where two headings read alike, the source gives them in different places.

Assays:
[1] = tested on: ribosome stalling on trpL mRNA in a cell-free translation system; experiment: toeprinting (primer extension inhibition) assay on trpL mRNA; type: biochemical; conditions: trpL mRNA template, 30 μM compound
Source text: To investigate the mechanism of action of CAM-C10-TPP and CAM-C14-TPP in the translation process, a primer extension inhibition assay (toeprinting) was used. This method allows for the unambiguous identification of drug-induced ribosome stalling sites along the mRNA, with single-nucleotide precision. This technique is also used to determine the context-specificity of antibiotic action. For this experiment, trpL mRNAs were chosen as the template, as in the pDualrep2 reporter system. […] Compared to the results obtained previously for CAM-C4-TPP using rst1 and rst2 mRNA templates, more unambiguous results were obtained using a trpL mRNA template. The main drug-induced ribosome stalling sites are different for CHL and CAM-Cn-TPP, and there are also CAM-Cn-TPP-specific stalling positions.
The toeprinting assay was carried out using trpL mRNA as a template, as described in [73], and the reactions were preincubated for 5 min with 30 μM of the tested compound.

[2] = tested on: E. coli BW25113 ΔtolC pDualrep2 reporter strain; experiment: pDualrep2 double fluorescent reporter assay on agar plate; type: cell-based; conditions: compound spotted on agar lawn, overnight 37 °C
Source text: Next, we tested the effects of CAM-C10-TPP and CAM-C14-TPP in bacterial cells using an E. coli ∆tolC-based reporter system, which is designed to screen inhibitors targeting either protein synthesis or DNA replication. In this reporter system, the gene of the far-red fluorescent protein, katushka2S, is inserted downstream of the genetically modified tryptophan attenuator, making it possible to express Katushka2S only upon exposure to ribosome-stalling compounds (Figure 2B, CHL and ERY, red pseudocolor rings).
Reporter strain […] [71] ΔtolC (BW25113) pDualrep2 was used, as previously described. The tested antibiotics, CAM-C10-TPP (10 mM, 1.5 μL), CAM-C14-TPP (10 mM, 1.5 μL), C10-TPP (10 mM, 1.5 μL), C14-TPP (10 mM, 1.5 μL), CAM (10 mM, 1.5 μL), CAM-Ac (10 mM, 1.5 μL), chloramphenicol (CHL, 2 mM, 1 μL), erythromycin (Ery, 7 mM, 1 μL), and levofloxacin (Lev, 70 nM, 1 μL), were applied to an agar plate that already contained a lawn of the reporter strain. After being incubated overnight at 37 °C, the plate was scanned by ChemiDoc (Bio-Rad) in the modes, “Cy3-blot” for RFP and “Cy5-blot” for Katushka2S.

Mycobacterium smegmatis = experiment: MIC determination, broth microdilution; type: cell-based; conditions: Mycolicibacterium smegmatis
Source text: (§1) Standard laboratory strains of Bacillus subtilis subs. subtilis Cohn 1872, stains BR151, and 168, Staphylococcus aureus subsp. aureus Rosenbach 1884 strains JCM 2151 and entry MC#144 (from the Microorganisms Collection of the Moscow State University), Listeria monocytogenes Pirie 1940, Mycobacterium smegmatis Lehmann and Neumann 1899 (MC#377), and Escherichia coli Castellani and Chalmers 1919, strain JW5503 (with the deletion of tolC gene), which are resistant to the chloramphenicol strains, J53rif, C600rif/pIB55-1, C600rif/pIP162-1, and C600recA naI, were used.
(§2) The MICs for CAM-Cn-TPP and Cn-TPP were determined by Mueller-Hinton broth microdilution, as recommended by CLSI in the Methods for Dilution Antimicrobial Susceptibility Tests for Bacteria that Grow Aerobically, Approved Standard, 9th ed., CLSI document M07-A9, using in-house-prepared panels. The compounds were diluted in a 96-well microtiter plate to final concentrations ranging from 0.5 to 360 μM in a 250-µL aliquot of the bacterial suspension, followed by incubation at 37 °C or 30 °C for 18 h. […] The bacterial growth was observed visually alongside OD measurements. The experiments were carried out in triplicate.

Bacillus subtilis = experiment: MIC determination, broth microdilution; type: cell-based
Source text: as §1, §2

B. subtilis pHT01-cfr = experiment: MIC determination, broth microdilution; type: cell-based; conditions: Bacillus subtilis, PHT01CFR
Method: (§3) E. coli ∆tolC CHL-resistant strain harboring plasmid encoding for chloramphenicol acetyltransferase (cat) (pCA24N-LacZ) and the control E. coli ∆tolC strain was used to evaluate the inhibitory effect of the compounds. CHL-resistant strains of B. subtilis pHT01-cat and B. subtilis pHT01-cfr were prepared by means of a transformation of a B. subtilis 168 strain with plasmids harboring the cat and cfr genes (chloramphenicol-florfenicol resistance) gene. The cfr gene encodes for the methyltransferase, which catalyzes the methylation of […] in the 23S rRNA and causes resistance to a variety of ribosome-targeting antibiotics that bind in the A site of the bacterial ribosome.
(§4) A standard laboratory strain of B. subtilis 168 was used to obtain the CHL-resistant strains, B. subtilis pHT01-CAT and B. subtilis pHT01-cfr, by means of transformation with the corresponding plasmids. Competent cell preparation and transformation procedures were conducted, as reported in [74, 75]. The desired colonies were selected at 10 µg/mL of CHL for B. subtilis pHT01 and 5 µg/mL or 3.2 µg/mL of CHL for B. subtilis pHT01-cfr.
as §2

B. subtilis pHT01-cat = experiment: MIC determination, broth microdilution; type: cell-based; conditions: Bacillus subtilis, PHT01CAT
Method: as §3, §4, §2

[3] = Table 1, double-dilution method, read-out: MIC

Compound | drug-induced ribosome stalling site [1] | induction of reporters (Katushka2S: ribosome stalling; RFP: DNA damage) [2] | MIC (Mycobacterium smegmatis) [µM] | MIC (Bacillus subtilis) [µM] | MIC (B. subtilis pHT01-cfr) [µM] | MIC (B. subtilis pHT01-cat) [µM] | MIC (Mycobacterium smegmatis; [3]) [µM] | MIC (Bacillus subtilis; [3]) [µM]
O=C(CCCCCCCCCC[P+](c1ccccc1)(c1ccccc1)c1ccccc1)N[C@H](CO)[C@H](O)c1ccc([N+](=O)[O-])cc1 [CAM-C10-TPP, (N-{[(1R,2R)-1,3-dihydroxy-1-(4-nitrophenyl)propan-2-yl]amino}-11-oxoundecyl)(triphenyl)phosphonium bromide] | blocked the ribosome progression at Val6 (Figure 2D, red arrowhead) and slightly blocked it at Ile4 | red pseudocolor rings are observed due to the expression of the fluorescent protein, Katushka2S (but not RFP) | 2 | 2 | 6 | 6 | – | –
O=C(CCCCCCCCCC[P+](c1ccccc1)(c1ccccc1)c1ccccc1)NCCCC(=O)N[C@H](CO)[C@H](O)c1ccc([N+](=O)[O-])cc1 [CAM-C14-TPP, N-[(1R,2R)-1,3-dihydroxy-1-(4-nitrophenyl)propan-2-yl]-4-(triphenyl)phosphoniumundecanamidobutamide bromide] | blocked the ribosome progression at Val6 (Figure 2D, red arrowhead) and slightly blocked it at Ile4 | red pseudocolor rings are observed due to the expression of the fluorescent protein, Katushka2S (but not RFP) | 8 | 12 | 6 | 12.5 | – | –
O=C(N[C@H](CO)[C@H](O)c1ccc([N+](=O)[O-])cc1)C(Cl)Cl [CHL, chloramphenicol] | stalls ribosomes at the Ile4 codon | red pseudocolor rings are observed due to the expression of the fluorescent protein, Katushka2S (but not RFP) | – | – | 90 (≈ 29.1 µg/mL) | 180 (≈ 58.2 µg/mL) | 6 (≈ 1.94 µg/mL) | 12 (≈ 3.88 µg/mL)
